From patent US8952024B2, “Herbicidal pyrimidone derivatives” (E I du Pont de Nemours and Company, priority 2009, dated 2015)

Tests used:
Assay type in all cases: in vivo
rice (Oryza sativa) = assay: Test B flooded paddy test; conditions: for Plant response rating, Flood, Rice: 250 g ai/ha, flooded paddy test, visual rating on 0 to 100 scale (0 no effect, 100 complete control) after 13 to 15 days; for Plant response rating, Rice: Flood (flooded paddy test), 13 to 15 days; for Rice plant response rating: Flood, 31 g ai/ha, scale 0 to 100 (0 no effect, 100 complete control)
Procedure, shortened: (§1)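 Seedlings reaching 2 leaves are flooded 3 cm deep; test material is delivered to that water, which stays at the same depth. Plants remain in a greenhouse 13–15 days and are then scored by eye versus controls from 0 to 100.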

[1] = system: ducksalad (Heteranthera limosa); assay: Test B flooded paddy test; conditions: for Plant response rating, Flood, Ducksalad: 250 g ai/ha, flooded paddy test, visual rating on 0 to 100 scale (0 no effect, 100 complete control) after 13 to 15 days; for Plant response rating, Ducksalad: Flood (flooded paddy test), 13 to 15 days; for Ducksalad plant response rating: Flood, 31 g ai/ha, scale 0 to 100 (0 no effect, 100 complete control)
Procedure, shortened: as §1

[2] = system: barnyardgrass (Echinochloa crus-galli); assay: Test B flooded paddy test; conditions: for Plant response rating, Flood, Barnyardgrass: 250 g ai/ha, flooded paddy test, visual rating on 0 to 100 scale (0 no effect, 100 complete control) after 13 to 15 days; for Plant response rating, Barnyardgrass: Flood (flooded paddy test), 13 to 15 days; for Barnyardgrass plant response rating: Flood, 31 g ai/ha, scale 0 to 100 (0 no effect, 100 complete control)
Procedure, shortened: as §1

[3] = system: umbrella sedge (Cyperus difformis); assay: Test B flooded paddy test; conditions: for Plant response rating, Flood, Sedge, Umbrella: 250 g ai/ha, flooded paddy test, visual rating on 0 to 100 scale (0 no effect, 100 complete control) after 13 to 15 days; for Plant response rating, Sedge, Umbrella: Flood (flooded paddy test), 13 to 15 days; for Sedge, Umbrella plant response rating: Flood, 31 g ai/ha, scale 0 to 100 (0 no effect, 100 complete control)
Procedure, shortened: as §1

[4] = system: pigweed (Amaranthus retroflexus); assay: Test A pre-/postemergence plant response
Source text: (§2) Seeds of barnyardgrass (Echinochloa crus-galli), large crabgrass (Digitaria sanguinalis), giant foxtail (Setaria faberii), morningglory (Ipomoea spp.), pigweed (Amaranthus retroflexus), velvetleaf (Abutilon theophrasti), wheat (Triticum aestivum) and corn (Zea mays) were planted into a blend of loam soil and sand and treated preemergence with a directed soil spray using test chemicals formulated in a non-phytotoxic solvent mixture which included a surfactant. At the same time these species were also treated with postemergence applications of test compounds formulated in the same manner.
(§3) Plants ranged in height from two to ten cm and were in the one- to two-leaf stage for the postemergence treatment. Treated plants and untreated controls were maintained in a greenhouse for approximately ten days, after which time all treated plants were compared to untreated controls and visually evaluated for injury. Plant response ratings, summarized in Table A, are based on a 0 to 100 scale where 0 is no effect and 100 is complete control. A dash (-) response means no test result.

[5] = system: morningglory (Ipomoea spp.); assay: Test A pre-/postemergence plant response
Source text: as §2, §3

[6] = system: large crabgrass (Digitaria sanguinalis); assay: Test A pre-/postemergence plant response
Source text: as §2, §3

[7] = system: giant foxtail (Setaria faberii); assay: Test A pre-/postemergence plant response
Source text: as §2, §3

corn (Zea mays) = assay: Test A pre-/postemergence plant response
Source text: as §2, §3

[8] = system: wheat (Triticum aestivum); assay: Test A pre-/postemergence plant response
Source text: as §2, §3

[9] = system: barnyardgrass (Echinochloa crus-galli); assay: Test A pre-/postemergence plant response
Source text: as §2, §3

[10] = system: velvetleaf (Abutilon theophrasti); assay: Test A pre-/postemergence plant response
Source text: as §2, §3

[11] = 62 g ai/ha, scale of 0 to 100 where 0 is no effect and 100 is complete control
[12] = 125 g ai/ha, scale 0 to 100, 0 is no effect, 100 is complete control
[13] = Postemergence, 125 g ai/ha, 0 to 100 scale where 0 is no effect and 100 is complete control
[14] = Postemergence, 500 g ai/ha, 0 to 100 scale, 0 = no effect, 100 = complete control, approx. ten days
[15] = Preemergence, 125 g ai/ha, 0 to 100 scale, 0 = no effect, 100 = complete control
[16] = Preemergence, 500 g ai/ha, visual injury, 0 to 100 scale (0 no effect, 100 complete control), approx. ten days
[17] = Preemergence, 500 g ai/ha, 0 to 100 scale, 0 = no effect, 100 = complete control

SMILES: Cc1ccc(Cl)cc1-n1c(-c2cccc(Br)c2)ncc(C(=O)C2=C(O)CCCC2=O)c1=O [Compound 144]
- Plant response rating, Flood, Rice (rice (Oryza sativa)): 25
- Plant response rating, Rice (rice (Oryza sativa); [11]): 20
- Plant response rating, Rice (rice (Oryza sativa); [12]): 20
- Rice plant response rating (rice (Oryza sativa)): 15
- Plant response rating, Flood, Ducksalad [1]: 100
- Plant response rating, Ducksalad [1, 11]: 60
- Plant response rating, Ducksalad [1, 12]: 75
- Ducksalad plant response rating [1]: 50
- Plant response rating, Flood, Barnyardgrass [2]: 20
- Plant response rating, Barnyardgrass [2, 11]: 0
- Plant response rating, Barnyardgrass [2, 12]: 0
- Barnyardgrass plant response rating [2]: 0
- Plant response rating, Flood, Sedge, Umbrella [3]: 100
- Plant response rating, Sedge, Umbrella [3, 11]: 65
- Plant response rating, Sedge, Umbrella [3, 12]: 95
- Sedge, Umbrella plant response rating [3]: 50
- Plant response rating, Pigweed [4, 13]: 80
- Plant response rating, Pigweed [4, 14]: 90
- Plant response rating, Pigweed [4, 15]: 0
- Plant response rating, Pigweed [4, 16]: 90
- Plant response rating, Morningglory [5, 13]: 30
- Plant response rating, Morningglory [5, 14]: 70
- Plant response rating, Morningglory [5, 15]: 0
- Plant response rating, Morningglory [5, 16]: 10
- Plant response rating, Crabgrass, Large [6, 13]: 50
- Plant response rating, Crabgrass, Large [6, 14]: 90
- Plant response rating, Crabgrass, Large [6, 15]: 10
- Plant response rating, Crabgrass, Large [6, 16]: 30
- Plant response rating, Foxtail, Giant [7, 13]: 40
- Plant response rating, Foxtail, Giant [7, 14]: 90
- Plant response rating, Foxtail, Giant [7, 15]: 0
- Plant response rating, Foxtail, Giant [7, 16]: 10
- Plant response rating, Corn (corn (Zea mays); [13]): 0
- Plant response rating, Corn (corn (Zea mays); [14]): 30
- Plant response rating, Corn (corn (Zea mays); [15]): 0
- Plant response rating, Corn (corn (Zea mays); [16]): 0
- Plant response rating, Wheat [8, 13]: 0
- Plant response rating, Wheat [8, 14]: 0
- Plant response rating, Wheat [8, 15]: 0
- Plant response rating, Wheat [8, 17]: 0
- Plant response rating, Barnyardgrass [9, 13]: 70
- Plant response rating, Barnyardgrass [9, 14]: 100
- Plant response rating, Barnyardgrass [9, 15]: 0
- Plant response rating, Barnyardgrass [9, 16]: 20
- Plant response rating, Velvetleaf [10, 13]: 100
- Plant response rating, Velvetleaf [10, 14]: 100
- Plant response rating, Velvetleaf [10, 15]: 20
- Plant response rating, Velvetleaf [10, 17]: 70

SMILES: CCn1c(-c2cccc(Cl)c2)ncc(C(=O)C2=C(O)CCCC2=O)c1=O [Compound 145]
- Plant response rating, Flood, Rice (rice (Oryza sativa)): 0
- Plant response rating, Rice (rice (Oryza sativa); [11]): 0
- Plant response rating, Rice (rice (Oryza sativa); [12]): 0
- Rice plant response rating (rice (Oryza sativa)): 0
- Plant response rating, Flood, Ducksalad [1]: 80
- Plant response rating, Ducksalad [1, 11]: 80
- Plant response rating, Ducksalad [1, 12]: 80
- Ducksalad plant response rating [1]: 80
- Plant response rating, Flood, Barnyardgrass [2]: 25
- Plant response rating, Barnyardgrass [2, 11]: 0
- Plant response rating, Barnyardgrass [2, 12]: 0
- Barnyardgrass plant response rating [2]: 0
- Plant response rating, Flood, Sedge, Umbrella [3]: 80
- Plant response rating, Sedge, Umbrella [3, 11]: 0
- Plant response rating, Sedge, Umbrella [3, 12]: 60
- Sedge, Umbrella plant response rating [3]: 0
- Plant response rating, Pigweed [4, 13]: 100
- Plant response rating, Pigweed [4, 14]: 100
- Plant response rating, Pigweed [4, 15]: 70
- Plant response rating, Pigweed [4, 16]: 100
- Plant response rating, Morningglory [5, 13]: 90
- Plant response rating, Morningglory [5, 14]: 90
- Plant response rating, Morningglory [5, 15]: 0
- Plant response rating, Morningglory [5, 16]: 80
- Plant response rating, Crabgrass, Large [6, 13]: 70
- Plant response rating, Crabgrass, Large [6, 14]: 90
- Plant response rating, Crabgrass, Large [6, 15]: 50
- Plant response rating, Crabgrass, Large [6, 16]: 100
- Plant response rating, Foxtail, Giant [7, 13]: 60
- Plant response rating, Foxtail, Giant [7, 14]: 80
- Plant response rating, Foxtail, Giant [7, 15]: 30
- Plant response rating, Foxtail, Giant [7, 16]: 70
- Plant response rating, Corn (corn (Zea mays); [13]): 30
- Plant response rating, Corn (corn (Zea mays); [14]): 40
- Plant response rating, Corn (corn (Zea mays); [15]): 0
- Plant response rating, Corn (corn (Zea mays); [16]): 20
- Plant response rating, Wheat [8, 13]: 0
- Plant response rating, Wheat [8, 14]: 0
- Plant response rating, Wheat [8, 15]: 0
- Plant response rating, Wheat [8, 17]: 20
- Plant response rating, Barnyardgrass [9, 13]: 70
- Plant response rating, Barnyardgrass [9, 14]: 100
- Plant response rating, Barnyardgrass [9, 15]: 20
- Plant response rating, Barnyardgrass [9, 16]: 90
- Plant response rating, Velvetleaf [10, 13]: 100
- Plant response rating, Velvetleaf [10, 14]: 100
- Plant response rating, Velvetleaf [10, 15]: 90
- Plant response rating, Velvetleaf [10, 17]: 100
